Test results reported in patent publication US10588317B2, “Isoxazoline-substituted benzamides and analogues as insecticides” (priority 2015, dated 2020).

What was measured:
Type in all cases: in vivo
[1] = tested on: Diabrotica balteata; assay: Diabrotica balteata (corn root worm), sprayed maize sprouts; conditions: 96 h, application rate 200 ppm, L2 larvae, 4 days after infestation, read-out: effect in at least one of the two categories (mortality or growth inhibition)
In short: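 Maize sprouts on agar sprayed with aqueous dilutions of DMSO stocks, dried, then infested with L2 larvae (6–10 per well). Mortality and growth inhibition scored against untreated controls 4 days after infestation, at 200 ppm application rate.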

[2] = tested on: Myzus persicae; assay: Myzus persicae (green peach aphid): feeding/contact activity; conditions: 144 h, application rate 200 ppm, aphid population of mixed ages, 6 days after infestation, read-out: mortality
Procedure: (§1) Sunflower leaf discs were placed onto agar in a 24-well microtiter plate and sprayed with aqueous test solutions prepared from 10'000 ppm DMSO stock solutions. After drying, the leaf discs were infested with an aphid population of mixed ages. The samples were assessed for mortality 6 days after infestation.

[3] = tested on: Spodoptera littoralis; assay: Spodoptera littoralis (Egyptian cotton leaf worm), uptake by lettuce roots from agar; conditions: 144 h, read-out: effect in at least one of the three categories (mortality, anti-feeding, or growth inhibition)
In short: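 Compound from 10'000 ppm DMSO stocks was mixed into agar, and lettuce grew on it for 7 days to take it up via roots. Cut leaves were infested with Spodoptera eggs; mortality, anti-feedant effect and growth inhibition scored 6 days later versus untreated samples.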

[4] = tested on: Plutella xylostella; assay: Plutella xylostella (diamond back moth), artificial diet; conditions: 120 h, application rate 200 ppm, L2 larvae, 5 days after infestation, read-out: effect in at least one of the two categories (mortality or growth inhibition)
In short: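 Artificial diet in 24-well plates treated with aqueous test solutions made from 10'000 ppm DMSO stocks, dried, then infested with L2 larvae (10 to 15 per well). Mortality and growth inhibition scored against untreated samples 5 days after infestation; activity cut-off at least 80% in either category at 200 ppm.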

[5] = tested on: Euschistus heros; assay: Euschistus heros (neotropical brown stink bug), sprayed soybean leaves; conditions: 120 h, application rate 200 ppm, N2 nymphs, 5 days after infestation, read-out: effect in at least one of the two categories (mortality or growth inhibition)
In short: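 Soybean leaves on agar sprayed with aqueous dilutions of DMSO stocks, dried, then infested with N2 nymphs. Mortality and growth inhibition scored against untreated samples 5 days after infestation; application rate 200 ppm.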

[6] = tested on: Thrips tabaci; assay: Thrips tabaci (onion thrips): feeding/contact activity; conditions: 144 h, application rate 200 ppm, Thrips population of mixed ages, 6 days after infestation, read-out: mortality
Procedure: as §1, with “on” for “onto”, “in” for “in a”, “plates” for “plate”, “drying” for “drying,”, “a Thrips” for “an aphid”

[7] = tested on: Spodoptera littoralis; assay: Spodoptera littoralis (Egyptian cotton leaf worm), sprayed cotton leaf discs; conditions: foliar, 72 h, application rate 200 ppm, L1 larvae, 3 days after infestation, read-out: control (mortality, anti-feeding effect, growth inhibition)
In short: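 Cotton leaf discs on agar sprayed with aqueous test solutions made from 10'000 ppm DMSO stock; after drying, infested with five L1 larvae. Mortality, anti-feeding and growth inhibition scored versus untreated samples 3 days after infestation; control counted when any category exceeds untreated.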

[8] = tested on: Tetranychus urticae; assay: Tetranychus urticae (two-spotted spider mite): feeding/contact activity; conditions: 192 h, application rate 200 ppm, mixed population (mobile stages), 8 days after infestation, read-out: mortality
Procedure: Bean leaf discs on agar in 24-well microtiter plates were sprayed with aqueous test solutions prepared from 10'000 ppm DMSO stock solutions. After drying the leaf discs were infested with a mite population of mixed ages. The samples were assessed for mortality on mixed population (mobile stages) 8 days after infestation.

CCOC(=O)N(C)S(=O)(=O)N1CC(NC(=O)c2ccc(C3=NO[C@@](c4cc(Cl)c(F)c(Cl)c4)(C(F)(F)F)C3)cc2C)CO1 (stereo partly shown) [Compound A76]
≥ 80%: percent effect (mortality or growth inhibition) at 200 ppm [1] | mortality at 200 ppm [2] | percent control (mortality, anti-feedant effect or growth inhibition) at 12.5 ppm [3] | percent effect (mortality or growth inhibition) at 200 ppm [4] | percent effect (mortality or growth inhibition) at 200 ppm [5] | mortality at 200 ppm [6] | mortality at 200 ppm [7] | mortality at 200 ppm [8]

Cc1cc(C2=NO[C@@](c3cccc(C(F)(F)F)c3)(C(F)(F)F)C2)ccc1C(=O)N[C@H]1CON(S(=O)(=O)N(C)C)C1 [Compound A111]
≥ 80%: percent effect (mortality or growth inhibition) at 200 ppm [1] | mortality at 200 ppm [2] | percent effect (mortality, anti-feeding or growth inhibition) at 12.5 ppm ([3]; test rate 12.5 ppm, eggs, 6 days after infestation) | percent effect (mortality or growth inhibition) at 200 ppm [4] | percent effect (mortality or growth inhibition) at 200 ppm [5] | mortality at 200 ppm [6] | mortality at 200 ppm [7] | mortality at 200 ppm [8]

Cc1cc(C2=NO[C@@](c3cc(Cl)c(F)c(Cl)c3)(C(F)(F)F)C2)ccc1C(=O)NC1CON(S(=O)(=O)N(C)C#N)C1 (stereo partly drawn) [Compound A81, N-[2-[cyano(methyl)sulfamoyl]isoxazolidin-4-yl]-4-[(5S)-5-(3,5-dichloro-4-fluoro-phenyl)-5-(trifluoromethyl)-4H-isoxazol-3-yl]-2-methyl-benzamide]
≥ 80%: percent effect (mortality or growth inhibition) at 200 ppm [1] | mortality at 200 ppm [2] | percent control (mortality, anti-feedant effect or growth inhibition) at 12.5 ppm [3] | percent effect (mortality or growth inhibition) at 200 ppm [4] | percent effect (mortality or growth inhibition) at 200 ppm [5] | mortality at 200 ppm [6] | mortality at 200 ppm [7] | mortality at 200 ppm [8]

Cc1cc(C2=NO[C@@](c3cc(Cl)cc(Cl)c3)(C(F)(F)F)C2)ccc1C(=O)N[C@H]1CON(S(C)(=O)=O)C1 [Compound A38]
≥ 80%: percent effect (mortality or growth inhibition) at 200 ppm [1] | mortality at 200 ppm [2] | percent control (mortality, anti-feedant effect or growth inhibition) at 12.5 ppm [3] | percent effect (mortality or growth inhibition) at 200 ppm [4] | percent effect (mortality or growth inhibition) at 200 ppm [5] | mortality at 200 ppm [6] | mortality at 200 ppm [7] | mortality at 200 ppm [8]

Cc1cc(C2=NO[C@@](c3cc(Cl)c(Cl)c(Cl)c3)(C(F)(F)F)C2)ccc1C(=O)N[C@H]1CON(S(N)(=O)=O)C1 [Compound A68, 2-methyl-N-[(4R)-2-sulfamoylisoxazolidin-4-yl]-4-[(5S)-5-(3,4,5-trichlorophenyl)-5-(trifluoromethyl)-4H-isoxazol-3-yl]benzamide]
≥ 80%: percent effect (mortality or growth inhibition) at 200 ppm [1] | mortality at 200 ppm [2] | percent control (mortality, anti-feedant effect or growth inhibition) at 12.5 ppm [3] | percent effect (mortality or growth inhibition) at 200 ppm [4] | percent effect (mortality or growth inhibition) at 200 ppm [5] | mortality at 200 ppm [6] | mortality at 200 ppm [7] | mortality at 200 ppm [8]

CCNS(=O)(=O)N1C[C@@H](NC(=O)c2ccc(C3=NO[C@@](c4cc(Cl)cc(C(F)(F)F)c4)(C(F)(F)F)C3)cc2C)CO1 [Compound A134]
≥ 80%: percent effect (mortality or growth inhibition) at 200 ppm [1] | mortality at 200 ppm [2] | percent control (mortality, anti-feedant effect or growth inhibition) at 12.5 ppm [3] | percent effect (mortality or growth inhibition) at 200 ppm [4] | percent effect (mortality or growth inhibition) at 200 ppm [5] | mortality at 200 ppm [6] | mortality at 200 ppm [7] | mortality at 200 ppm [8]

CN(C)S(=O)(=O)N1C[C@@H](NC(=O)c2ccc(C3=NO[C@@](c4cc(Cl)c(F)c(Cl)c4)(C(F)(F)F)C3)cc2Cl)CO1 [Compound A107]
≥ 80%: percent effect (mortality or growth inhibition) at 200 ppm [1] | mortality at 200 ppm [2] | percent control (mortality, anti-feedant effect or growth inhibition) at 12.5 ppm [3] | percent effect (mortality or growth inhibition) at 200 ppm [4] | percent effect (mortality or growth inhibition) at 200 ppm [5] | mortality at 200 ppm [6] | mortality at 200 ppm [7] | mortality at 200 ppm [8]

CCN(C)S(=O)(=O)N1CC(NC(=O)c2ccc(C3=NO[C@@](c4cc(Cl)c(Cl)c(Cl)c4)(C(F)(F)F)C3)cc2C)CO1 (stereo partly drawn) [Compound A73, N-[2-[ethyl(methyl)sulfamoyl]isoxazolidin-4-yl]-2-methyl-4-[(5S)-5-(3,4,5-trichlorophenyl)-5-(trifluoromethyl)-4H-isoxazol-3-yl]benzamide]
≥ 80%: percent effect (mortality or growth inhibition) at 200 ppm [1] | mortality at 200 ppm [2] | percent control (mortality, anti-feedant effect or growth inhibition) at 12.5 ppm [3] | percent effect (mortality or growth inhibition) at 200 ppm [4] | percent effect (mortality or growth inhibition) at 200 ppm [5] | mortality at 200 ppm [6] | mortality at 200 ppm [7] | mortality at 200 ppm [8]

Cc1cc(C2=NO[C@@](c3cc(Cl)cc(Cl)c3)(C(F)(F)F)C2)ccc1C(=O)N[C@H]1CON(S(=O)(=O)NC2CC2)C1 [Compound A155]
≥ 80%: percent effect (mortality or growth inhibition) at 200 ppm [1] | mortality at 200 ppm [2] | percent control (mortality, anti-feedant effect or growth inhibition) at 12.5 ppm [3] | percent effect (mortality or growth inhibition) at 200 ppm [4] | percent effect (mortality or growth inhibition) at 200 ppm [5] | mortality at 200 ppm [6] | mortality at 200 ppm [7] | mortality at 200 ppm [8]

CCNS(=O)(=O)N1C[C@@H](NC(=O)c2ccc(C3=NO[C@@](c4cc(Cl)c(Cl)c(Cl)c4)(C(F)(F)F)C3)cc2C)CO1 [Compound A136, N-[(4R)-2-(ethylsulfamoyl)isoxazolidin-4-yl]-2-methyl-4-[(5S)-5-(3,4,5-trichlorophenyl)-5-(trifluoromethyl)-4H-isoxazol-3-yl]benzamide]
≥ 80%: percent effect (mortality or growth inhibition) at 200 ppm [1] | mortality at 200 ppm [2] | percent control (mortality, anti-feedant effect or growth inhibition) at 12.5 ppm [3] | percent effect (mortality or growth inhibition) at 200 ppm [4] | percent effect (mortality or growth inhibition) at 200 ppm [5] | mortality at 200 ppm [6] | mortality at 200 ppm [7] | mortality at 200 ppm [8]

CN(C)S(=O)(=O)N1C[C@@H](NC(=O)c2ccc(C3=NO[C@@](c4cc(Cl)cc(C(F)(F)F)c4)(C(F)(F)F)C3)cc2Cl)CO1 [Compound A108]
≥ 80%: percent effect (mortality or growth inhibition) at 200 ppm [1] | mortality at 200 ppm [2] | percent control (mortality, anti-feedant effect or growth inhibition) at 12.5 ppm [3] | percent effect (mortality or growth inhibition) at 200 ppm [4] | percent effect (mortality or growth inhibition) at 200 ppm [5] | mortality at 200 ppm [6] | mortality at 200 ppm [7] | mortality at 200 ppm [8]

Cc1cc(C2=NO[C@@](c3cc(Cl)cc(Cl)c3)(C(F)(F)F)C2)ccc1C(=O)NC1CON(S(=O)(=O)N(C)C)C1 (stereo partly shown) [Compound A41]
≥ 80%: percent effect (mortality or growth inhibition) at 200 ppm [1] | mortality at 200 ppm [2] | percent control (mortality, anti-feedant effect or growth inhibition) at 12.5 ppm [3] | percent effect (mortality or growth inhibition) at 200 ppm [4] | percent effect (mortality or growth inhibition) at 200 ppm [5] | mortality at 200 ppm [6] | mortality at 200 ppm [7] | mortality at 200 ppm [8]

CNS(=O)(=O)N1C[C@@H](NC(=O)c2ccc(C3=NO[C@@](c4cc(Cl)cc(C(F)(F)F)c4)(C(F)(F)F)C3)cc2C)CO1 [Compound A138]
≥ 80%: percent effect (mortality or growth inhibition) at 200 ppm [1] | mortality at 200 ppm [2] | percent control (mortality, anti-feedant effect or growth inhibition) at 12.5 ppm [3] | percent effect (mortality or growth inhibition) at 200 ppm [4] | percent effect (mortality or growth inhibition) at 200 ppm [5] | mortality at 200 ppm [6] | mortality at 200 ppm [7] | mortality at 200 ppm [8]

Cc1cc(C2=NO[C@@](c3cc(Cl)c(F)c(Cl)c3)(C(F)(F)F)C2)ccc1C(=O)NC1CON(S(=O)(=O)N(C)C)C1 (stereo partly shown) [Compound A10]
≥ 80%: percent effect (mortality or growth inhibition) at 200 ppm [1] | mortality at 200 ppm [2] | percent control (mortality, anti-feedant effect or growth inhibition) at 12.5 ppm [3] | percent effect (mortality or growth inhibition) at 200 ppm [4] | percent effect (mortality or growth inhibition) at 200 ppm [5] | mortality at 200 ppm [6] | mortality at 200 ppm [7] | mortality at 200 ppm [8]
